Data reported in patent US9080144B2, “Compositions and methods for promoting liposomal and cellular adhesion” (priority 2012, dated 2015).
“Also recorded” adds a separate entry of the source.

Tests used:
fibroblasts (fbs) [1] = test: Fluorescence labeling optimization of DOTAP concentration for liposome-cell fusion; assay type: cell-based; details: keto-LUVs with 0.5-5% DOTAP, 5% ketone; fbs 4 h; rhod-oxyamine 0.7 mM 2 h
Description: Cell-surface labeling. In an embodiment of the present application, oxime chemistry is used to tailor and fluorescently label cell surfaces via a novel liposome fusion strategy. As mentioned, cationic lipid, DOTAP, was incorporated within keto- and oxyamine-LUVs to initiate electrostatic destabilization and subsequent fusion to the cell membrane. As such, the minimum DOTAP concentration required to facilitate liposome-cell fusion was determined to be […] through fluorescence labeling optimization. Keto-LUVs were generated using DOTAP and POPC concentrations that ranged from 0.5% to 5% and 90% to 94.5%, respectively, while maintaining a 5-% ketone concentration. These liposomes were incubated with fibroblasts (fbs) for 4 h, conjugated with an oxyamine-tethered rhodamine (rhod-oxyamine, 8) (0.7 mM, 2 h), and the cell fluorescence intensities were then compared. […] The liposomes for liposome-cell fusion events were approximately ˜60 nm in diameter, similar to those used for the liposome-liposome fusion characterization.

fibroblasts (fbs) [2] = test: Cell-surface engineering: fluorescent labeling of fbs by liposome fusion and oxime conjugation; assay type: cell-based, mouse; details: liposome fusion 2 h plus complementary oxime dye
Description: Two cell-surface engineering methods were employed to fluorescently label fbs. In this first method, a solution of oxyamine vc-LUVs (6, 3 mM) was incubated with a ketone-functionalized fluorescein (7, 0.15 mM, 1 eq, 2 h), forming fluorescently labeled liposomes. The liposomes were then added to fbs in culture for 2 h. After fusion, the cells were washed with PBS (3×2 mL), trypsinized (1 mL, 5 min, 37° C., 5% CO2), diluted with CBS-containing media (˜10^2/mL), and seeded to a glass substrate (1×1 cm^2, 2 h). The cells were then imaged under a fluorescence microscope with an exposure time of 1/1200 s. In the second method, a solution of keto-LUVs (5, 200 μL, 0.6 mM) was added to fbs in culture for 2 h, resulting in membrane fusion and subsequent display of ketones from the cell surface (9). Rhod-oxyamine (8, 100 μL, 0.7 mM in H2O) was then added the cells for 2 h. After oxime formation, the fbs were washed with PBS (3×2 mL), trypsinized (1 mL, 5 min, 37° C., 5% CO2), diluted with CBS-containing media (˜10^2/mL), and seeded to a glass substrate (1×1 cm^2, 2 h). The cells were then imaged under a fluorescence microscope with an exposure time of 1/1200 s (see FIG. 3).

| Compound | minimum DOTAP concentration required to facilitate liposome-cell fusion (fibroblasts (fbs) [1]) [%] | fluorescent labeling of fbs (microscopy) (fibroblasts (fbs) [2]) |
| --- | --- | --- |
| CCCCCCCC/C=C\CCCCCCCC(=O)OCC(C[N+](C)(C)C)OC(=O)CCCCCCC/C=C\CCCCCCCC (centres unmarked) [DOTAP, 1,2-dioleoyl-3-trimethylammonium-propane] | 2 |  |
| CCN(CC)c1ccc2c(-c3ccc(S(=O)(=O)NCCCCNC(=O)CON)cc3S(=O)(=O)[O-])c3ccc(=[N+](CC)CC)cc-3oc2c1 [compound 8, 5-(N-(4-(2-(aminooxy)acetamido)butyl)sulfamoyl)-2-(6-(diethylamino)-3-(diethyliminio)-3H-xanthen-9-yl)benzenesulfonate] |  | fluorescence labeling of cells; also recorded: red fluorescent labeling of the cells |
